Laboratory results as given in US6124328A, “Methods and compositions for stimulating neurite growth” (Vertex Pharmaceuticals Incorporated, priority 1997, dated 2000).

These compounds were tested against FKBP12 (Homo sapiens, UniProt P62942) (assay: FKBP12 Binding Assay: inhibition of FKBP rotomase activity (cis-N-succinyl-Ala-Ala-Pro-Phe-p-nitroanilide / chymotrypsin), apparent Ki). Details: Table 1a, formula Ia, compound 0.1 nM-10 μM.
FKBP12, sequence (P62942 whole entry): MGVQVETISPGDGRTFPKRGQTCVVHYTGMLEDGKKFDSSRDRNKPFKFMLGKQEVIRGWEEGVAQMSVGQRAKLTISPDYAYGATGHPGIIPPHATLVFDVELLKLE
Format: biochemical
Source text: Preferably, the assay measures inhibition of FKBP12 rotomase activity. Such an assay has also been described by M. W. Harding et al., supra and by J. J. Siekierka et al., supra. In this assay the isomerization of an artificial substrate--N-succinyl-Ala-Ala-Pro-Phe-p-nitroanilide--is followed spectrophotometrically. The assay includes the cis form of the substrate, FKBP12, the inhibitor and chymotrypsin. Chymotrypsin is able to cleave p-nitroanilide from the trans form of the substrate, but not the cis form. Release of p-nitroanilide is measured.
In this assay various quantities of FKBP12 binding compound (0.1 nM-10 μM) were added to cis-N-succinyl-Ala-Ala-Pro-Phe-p-nitroanilide in the presence of FKBP12 and chymotrypsin. FKBP12 converts the cis form of the substrate to the trans form. This allows chymotrypsin to cleave p-nitroanilide from the substrate. Release of p-nitroanilide was measured spectrophotometrically.
In the case of `COc1cc(C(=O)C(=O)N2CCCC[C@H]2C(=O)OCCCC(C)C2CCCCC2)cc(OC)c1OC` (some centres unmarked), the Ki is reported as 0.09 µM.
With `O=C(Cc1ccccc1[N+](=O)[O-])C(=O)N1CCCC[C@H]1C(=O)OCc1ccccc1` [Ia B=Benzyl, D=2-Nitrobenzyl, n=2] the Ki was 26 µM.

Same assay, conditions: Table 1c, formula Ic, compound 0.1 nM-10 μM
In the case of `CCOC(=O)CN(Cc1ccccc1)C(=O)C(=O)OC`, the Ki is reported as > 1200 µM.

Same assay, conditions: Table 2, formula II', compound 0.1 nM-10 μM
Compound `COc1cc(C(=O)C(=O)N2CCCC[C@H]2C(=O)OC(c2ccccc2)c2cccc(Oc3ccccc3)c2)cc(OC)c1OC` (some centres unmarked) [compound 5] has a Ki of 4 µM.
`COc1ccc(CCC(CCCc2ccccc2)OC(=O)[C@@H]2CCCCN2C(=O)C(=O)c2cc(OC)c(OC)c(OC)c2)cc1` (some centres unmarked) [compound 13] was tested, and the Ki was 0.0035 µM.
`COc1cc(C(=O)C(=O)N2CCCC[C@H]2C(=O)OC(CCCc2ccccc2)CCCn2cnc3ccccc32)cc(OC)c1OC` (some centres unmarked) [compound 15] showed a Ki of 0.005 µM.
In the case of `COc1cc(C(=O)C(=O)N2CCCC[C@H]2C(=O)OC(CCCc2ccccc2)CCCc2ccccn2)cc(OC)c1OC` (some centres unmarked) [compound 20], the Ki is reported as 0.0065 µM.
`COc1cc(C(=O)C(=O)N2CCCC[C@H]2C(=O)OC(CCCc2ccccc2)CCCc2ccc[n+]([O-])c2)cc(OC)c1OC` (some centres unmarked) [compound 22] was tested, and the Ki was 0.007 µM.
Work on `COc1cc(C(=O)C(=O)N2CCCC[C@H]2C(=O)OC(CCCc2ccccc2)CCCn2ccc3cccnc32)cc(OC)c1OC` (some centres unmarked) [compound 23] yielded a Ki of 0.009 µM.
Work on `COc1cc(C(=O)C(=O)N2CCCC[C@H]2C(=O)OC(CCCc2ccccc2)CCCn2cnc3cncnc32)cc(OC)c1OC` (some centres unmarked) [compound 25] yielded a Ki of 0.0022 µM.
`COc1cc(C(=O)C(=O)N2CCCC[C@H]2C(=O)OC(CCCc2ccccc2)CCC(C)c2ccccc2)cc(OC)c1OC` (some centres unmarked) [compound 32] was tested, and the Ki was 0.02 µM.
In the case of `C=CCOc1ccccc1C(CCCc1ccccc1)OC(=O)[C@@H]1CCCCN1C(=O)C(=O)c1cc(OC)c(OC)c(OC)c1` (some centres unmarked) [compound 34], the Ki is reported as 0.15 µM.
`COc1cc(C(=O)C(=O)N2CCCC[C@H]2C(=O)OC(CCCc2ccccc2)c2cccc(CO)c2)cc(OC)c1OC` (some centres unmarked) [compound 37] was tested, and the Ki was 0.0068 µM.
With `COc1cc(C(=O)C(=O)N2CCCC[C@H]2C(=O)OC(CCCc2ccccc2)CCCc2ccc(C(=O)N(C)C)cc2)cc(OC)c1OC` (some centres unmarked) [compound 43] the Ki was 0.005 µM.
`COc1cc(C(=O)C(=O)N2CCCC[C@H]2C(=O)OC(CCCc2ccccc2)CCCc2ccc(C(=O)N3CCOCC3)cc2)cc(OC)c1OC` (some centres unmarked) [compound 44] was tested, and the Ki was 0.006 µM.
`C=CCOCCCCC(CCCc1ccccc1)OC(=O)[C@@H]1CCCCN1C(=O)C(=O)c1cc(OC)c(OC)c(OC)c1` (some centres unmarked) [compound 45] was tested, and the Ki was 0.007 µM.
In the case of `C=CCOCC#CC(CCCc1ccccc1)OC(=O)[C@@H]1CCCCN1C(=O)C(=O)c1cc(OC)c(OC)c(OC)c1` (some centres unmarked) [compound 46], the Ki is reported as 0.005 µM.
Compound `COc1cc(C(=O)C(=O)N2CCCC[C@H]2C(=O)OC(CCCc2ccccc2)CCCc2ccc(C(=O)N3CCCCC3)cc2)cc(OC)c1OC` (some centres unmarked) [compound 47] has a Ki of 0.007 µM.
`COc1cc(C(=O)C(=O)N2CCCC[C@H]2C(=O)OC(C)c2cc(OCc3ccccc3)cc(OCc3ccccc3)c2)cc(OC)c1OC` (some centres unmarked) [compound 49] showed a Ki of 3.4 µM.
`C=CCOCCC(CCCc1ccccc1)OC(=O)[C@@H]1CCCCN1C(=O)C(=O)c1cc(OC)c(OC)c(OC)c1` (some centres unmarked) [compound 50] showed a Ki of 0.011 µM.
`C=CCOC/C=C/C(CCCc1ccccc1)OC(=O)[C@@H]1CCCCN1C(=O)C(=O)c1cc(OC)c(OC)c(OC)c1` (some centres unmarked) [compound 51] showed a Ki of 0.0028 µM.
For `COc1cc(C(=O)C(=O)N2CCCC[C@H]2C(=O)OC(CCCc2ccccc2)CCCc2cccc(C(=O)N3CCOCC3)c2)cc(OC)c1OC` (some centres unmarked) [compound 52], the Ki was 0.0015 µM.
Compound `COc1cc(C(=O)C(=O)N2CCCC[C@H]2C(=O)OC(CCCc2ccccc2)CCCc2ccc(C(=O)NCc3ccccc3)cc2)cc(OC)c1OC` (some centres unmarked) [compound 54] has a Ki of 0.0016 µM.
`COc1cc(C(=O)C(=O)N2CCCC[C@H]2C(=O)OC(CCCc2ccccc2)CCCc2ccc(C(=O)N3CCSCC3)cc2)cc(OC)c1OC` (some centres unmarked) [compound 55] showed a Ki of 0.0024 µM.
In the case of `COc1cc(C(=O)C(=O)N2CCCC[C@H]2C(=O)OC(CCCc2ccccc2)c2cccc(C(=O)N3CCOCC3)c2)cc(OC)c1OC` (some centres unmarked) [compound 56], the Ki is reported as 0.0061 µM.
Work on `COc1cc(C(=O)C(=O)N2CCCC[C@H]2C(=O)OC(CCCc2ccccc2)CCCc2ccc(C(=O)N3CCN(C)CC3)cc2)cc(OC)c1OC` (some centres unmarked) [compound 57] yielded a Ki of 0.0056 µM.
`COc1cc(C(=O)C(=O)N2CCCC[C@H]2C(=O)OC(CCCc2ccccc2)CCCc2ccc(C(=O)N3CCN(Cc4ccccc4)CC3)cc2)cc(OC)c1OC` (some centres unmarked) [compound 58] was tested, and the Ki was 0.03 µM.
For `COc1cc(C(=O)C(=O)N2CCCC[C@H]2C(=O)OC(CCCc2ccccc2)CCCc2cccc(C(=O)NCc3ccccc3)c2)cc(OC)c1OC` (some centres unmarked) [compound 59], the Ki was 0.04 µM.
`COc1cc(C(=O)C(=O)N2CCCC[C@H]2C(=O)OC(CCCc2ccccc2)CCCc2ccc(C(=O)Nc3ccccn3)cc2)cc(OC)c1OC` (some centres unmarked) [compound 60] gave a Ki of 0.002 µM.
With `COc1cc(C(=O)C(=O)N2CCCC[C@H]2C(=O)OC(CCCc2cccnc2)c2cccnc2)cc(OC)c1OC` (some centres unmarked) [compound 61] the Ki was 0.01 µM.
`C=CCC(OC(=O)[C@@H]1CCCCN1C(=O)C(=O)c1cc(OC)c(OC)c(OC)c1)c1ccc(OCc2ccncc2)c(OCc2ccncc2)c1` (some centres unmarked) [compound 62] was tested, and the Ki was 0.062 µM.
With `COc1cc(C(=O)C(=O)N2CCCC[C@H]2C(=O)OC(c2cccnc2)c2cccc(OCc3ccncc3)c2)cc(OC)c1OC` (some centres unmarked) [compound 63] the Ki was 0.013 µM.
`COc1cc(C(=O)C(=O)N2CCCC[C@H]2C(=O)OC(CCCc2ccccc2)c2cccc(OCc3ccncc3)c2)cc(OC)c1OC` (some centres unmarked) [compound 64] gave a Ki of 0.0014 µM.
For `COc1cc(C(=O)C(=O)N2CCCC[C@H]2C(=O)OC(CCCc2ccccc2)c2ccc(OCc3ccncc3)c(OCc3ccncc3)c2)cc(OC)c1OC` (some centres unmarked) [compound 65], the Ki was 0.0041 µM.
In the case of `COc1cc(C(=O)C(=O)N2CCCC[C@H]2C(=O)OC(C)c2ccc(OCc3ccncc3)c(OCc3ccncc3)c2)cc(OC)c1OC` (some centres unmarked) [compound 66], the Ki is reported as 0.035 µM.
`COc1cc(C(=O)C(=O)N2CCCC[C@H]2C(=O)OC(CCCc2ccccc2)c2ccc(OCc3ccncc3)c(OCc3ccncc3)c2OCc2ccncc2)cc(OC)c1OC` (some centres unmarked) [compound 67] was tested, and the Ki was 0.046 µM.
`COc1cc(C(=O)C(=O)N2CCCC[C@H]2C(=O)OC(CCCc2ccccc2)c2ccc(OCc3ccncc3)c(C(=O)N3CCOCC3)c2)cc(OC)c1OC` (some centres unmarked) [compound 68] was tested, and the Ki was 0.002 µM.
Compound `COc1cc(C(=O)C(=O)N2CCCC[C@H]2C(=O)OC(C)c2cc(OCc3ccncc3)c(OCc3ccncc3)c(OCc3ccncc3)c2)cc(OC)c1OC` (some centres unmarked) [compound 69] has a Ki of 0.036 µM.
In the case of `COc1cc(C(=O)C(=O)N2CCCC[C@H]2C(=O)OC(CCCc2ccccc2)c2cc(OCc3ccncc3)c(OCc3ccncc3)c(OCc3ccncc3)c2)cc(OC)c1OC` (some centres unmarked) [compound 70], the Ki is reported as 0.005 µM.
With `COc1cc(C(=O)C(=O)N2CCCC[C@H]2C(=O)OC(C)c2cc(OCc3ccncc3)cc(OCc3ccncc3)c2)cc(OC)c1OC` (some centres unmarked) [compound 71] the Ki was 0.014 µM.
In the case of `COc1cc(C(=O)C(=O)N2CCCC[C@H]2C(=O)OC(C)c2cc(OCc3ccncc3)cc(OCc3ccncc3)c2)cc(OC)c1OC` (some centres unmarked) [compound 72], the Ki is reported as 0.012 µM.
For `COc1cc(C(=O)C(=O)N2CCCC[C@H]2C(=O)OC(C)c2cc(OCc3ccncc3)c(C)c(OCc3ccncc3)c2)cc(OC)c1OC` (some centres unmarked) [compound 73], the Ki was 0.036 µM.
`CCC(OC(=O)[C@@H]1CCCCN1C(=O)C(=O)c1cc(OC)c(OC)c(OC)c1)c1cc(OCc2ccncc2)c(OCc2ccncc2)c(OCc2ccncc2)c1` (some centres unmarked) [compound 74] showed a Ki of 0.018 µM.
Compound `CCC(OC(=O)[C@@H]1CCCCN1C(=O)C(=O)c1cc(OC)c(OC)c(OC)c1)c1cc(OCc2ccncc2)c(OCc2ccncc2)c(OCc2ccncc2)c1` (some centres unmarked) [compound 75] has a Ki of 0.012 µM.
`C=CCC(OC(=O)[C@@H]1CCCCN1C(=O)C(=O)c1cc(OC)c(OC)c(OC)c1)c1cc(OCc2ccncc2)c(OCc2ccncc2)c(OCc2ccncc2)c1` (some centres unmarked) [compound 76] showed a Ki of 0.014 µM.
For `C=CC(OC(=O)[C@@H]1CCCCN1C(=O)C(=O)c1cc(OC)c(OC)c(OC)c1)c1cc(OCc2ccncc2)c(OCc2ccncc2)c(OCc2ccncc2)c1` (some centres unmarked) [compound 78], the Ki was 0.073 µM.
`C=CC(OC(=O)[C@@H]1CCCCN1C(=O)C(=O)c1cc(OC)c(OC)c(OC)c1)c1cc(OCc2ccncc2)c(OCc2ccncc2)c(OCc2ccncc2)c1` (some centres unmarked) [compound 79] gave a Ki of 0.0023 µM.
`CCCC(OC(=O)[C@@H]1CCCCN1C(=O)C(=O)c1cc(OC)c(OC)c(OC)c1)c1cc(OCc2ccncc2)c(OCc2ccncc2)c(OCc2ccncc2)c1` (some centres unmarked) [compound 80] gave a Ki of 0.017 µM.
With `CCCC(OC(=O)[C@@H]1CCCCN1C(=O)C(=O)c1cc(OC)c(OC)c(OC)c1)c1cc(OCc2ccncc2)c(OCc2ccncc2)c(OCc2ccncc2)c1` (some centres unmarked) [compound 81] the Ki was 0.005 µM.
For `COc1cc(C(=O)C(=O)N2CCCC[C@H]2C(=O)OC(C)c2cc(OCc3ccsc3)c(OCc3ccsc3)c(OCc3ccsc3)c2)cc(OC)c1OC` (some centres unmarked) [compound 82], the Ki was > 5 µM.
With `COc1cc(C(=O)C(=O)N2CCCC[C@H]2C(=O)OC(C)c2cc(OCc3ccsc3)c(OCc3ccsc3)c(OCc3ccsc3)c2)cc(OC)c1OC` (some centres unmarked) [compound 83] the Ki was > 1 µM.
In the case of `COc1cc(C(=O)C(=O)N2CCCC[C@H]2C(=O)OC(C)c2ccc(OCc3ccncc3)c(OCc3ccncc3)c2OC(C)C)cc(OC)c1OC` (some centres unmarked) [compound 84], the Ki is reported as 0.054 µM.
For `COc1cc(C(=O)C(=O)N2CCCC[C@H]2C(=O)OC(C)c2ccc(OCc3ccncc3)c(OCc3ccncc3)c2OC(C)C)cc(OC)c1OC` (some centres unmarked) [compound 85], the Ki was 0.0035 µM.
`COc1cc(C(=O)C(=O)N2CCC[C@H]2C(=O)OC(C)c2cc(OCc3ccncc3)c(OCc3ccncc3)c(OCc3ccncc3)c2)cc(OC)c1OC` (some centres unmarked) [compound 86] showed a Ki of 0.28 µM.
Work on `COc1cc(C(=O)C(=O)N2CCC[C@H]2C(=O)OC(C)c2cc(OCc3ccncc3)c(OCc3ccncc3)c(OCc3ccncc3)c2)cc(OC)c1OC` (some centres unmarked) [compound 87] yielded a Ki of 0.36 µM.
Work on `COc1cc(C(=O)C(=O)N2CCCC[C@H]2C(=O)OC(C)c2cc(OCc3ccccc3)c(OCc3ccccc3)c(OCc3ccccc3)c2)cc(OC)c1OC` (some centres unmarked) [compound 90] yielded a Ki of 2.6 µM.
